In general, IC50 refers to the midpoint of a concentration-inhibition curve.

Data on two molecules can be found in patent publication US20250026741A1, “INHIBITORS OF THE ONCOGENIC SHP2 PHOSPHATASE AND USES THEREOF” (Sanford Burnham Prebys Medical Discovery Institute, priority 2021, published 2025).

One test addresses SHP2-E76K (Homo sapiens (Human), UniProt Q06124, E76K). As to the kind of experiment: Time-dependent inhibition (preincubation) assay. It is filed as biochemical. Particulars: preincubation 1, 5, 10, 20, or 60 min with SHP2-E76K. The procedure:
PTPs contain a highly nucleophilic cysteine that is essential for catalytic activity, but is susceptible to oxidation and covalent modifications which abrogate its nucleophilic function and phosphatase activity. Because the methylenebenzothiophenone moiety of our inhibitors could potentially act as a Michael acceptor and thus covalently bind to the catalytic cysteine, we tested whether the observed inhibition of SHP2 was dependent on the preincubation time of inhibitor and enzyme. An irreversible covalent inhibitor may show time-dependent inhibition, with increased potency at longer incubation times. Conversely, the potency of a non-covalent inhibitor is expected to be insensitive to the time it is incubated with the enzyme. To test for time-dependent inhibition, #01 (#01) at 10 different concentrations was preincubated with SHP2-E76K for 1, 5, 10, 20, or 60 min, before the DiFMUP substrate was added to the reaction mixture and initial rates were recorded (FIG. 2C).

Test [1] relates to MLL-AF10 leukemia cells expressing E76K mutant SHP2. Kind of test: Cell viability assay, MLL-AF10 cells expressing E76K mutant SHP2. Particulars: Mus musculus. In kind it is cell-based, mouse. The method, then:
(§1) Cell viability assays of SHP099, #01, and #02 against mouse MLL-AF10 leukemia cells were conducted. Two MLL-AF10 cell lines were employed, one expressing wild-type SHP2, and the other expressing E76K mutant SHP2.

The target of test [2] is T1, SHP2cat (Homo sapiens (Human), UniProt Q06124). Kind of test: OMFP fluorescence intensity inhibition assay, SHP2cat. Particulars: OMFP at Km (50 μM); read-out: IC50 against SHP2cat with OMFP. In kind it is biochemical. The source says: (§2) We confirmed specific and dose-dependent binding of inhibitors to SHP2 by protein thermal shift, which monitors the thermal stability of a target protein in vitro. […] In addition, we confirmed the inhibitory activity of several furanylbenzamide inhibitors, including the top two compounds #02 and #01, in SHP2cat inhibition assays using the alternative substrate 3-O-methylfluorescein phosphate (OMFP), which features a peak fluorescence emission that is red-shifted by […] compared to DiFMUP. The Km value of OMFP for SHP2cat was determined to be 50 μM. An OMFP fluorescence intensity-based assay was used to perform inhibitor dose-response experiments and determine IC50 values.
T1 sequence (Q06124 248-527): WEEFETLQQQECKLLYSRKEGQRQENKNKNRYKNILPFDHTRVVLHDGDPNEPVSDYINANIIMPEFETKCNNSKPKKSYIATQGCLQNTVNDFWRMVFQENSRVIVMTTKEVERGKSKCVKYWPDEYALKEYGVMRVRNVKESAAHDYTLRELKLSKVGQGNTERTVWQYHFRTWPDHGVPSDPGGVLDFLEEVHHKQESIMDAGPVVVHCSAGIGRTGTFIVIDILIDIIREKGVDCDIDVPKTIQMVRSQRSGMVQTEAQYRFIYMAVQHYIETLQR
SHP2 inhibitors were tested at room temperature (RT) in a 384-well plate format standard phosphatase fluorescence intensity assay using DiFMUP (Invitrogen/Thermo Fisher Scientific, Carlsbad, CA) as a substrate and a total reaction volume of 25 μL. […] Fluorescence intensity was measured in kinetic mode (every minute for 7 or 10 min) using a Tecan Spark® Multimode Microplate Reader (Tecan, Groedig, Austria) with an excitation wavelength of 360 nm and an emission wavelength of 460 nm. The initial rates were determined from the linear progression curves of the PTP reaction. […] Initial rates were determined and IC50 vales calculated as described above.

Test [3] relates to MLL-AF10 leukemia cells expressing wild-type SHP2. As to the kind of experiment: Cell viability assay, MLL-AF10 cells expressing wild-type SHP2. In kind it is cell-based, mouse. Particulars: Mus musculus. The method, then: as §1
In test [4] the target is T1, SHP2cat. As to the kind of experiment: Protein thermal shift (PTS) assay. It is filed as binding. Particulars: vs vehicle (DMSO) control.
Source text: as §2
Differential scanning fluorimetry (also known as protein thermal shift) measurements of SHP2cat were performed. #02 was spotted at different concentrations into MicroAmp®384-well real-time PCR plates (#4483285, Applied Biosystems, Waltham, MA) using an Echo 555 Liquid Handler. […] Plates were analyzed using a ViiA® 7 Real-Time PCR instrument (Applied Biosystems, Waltham, MA) and a 12 min temperature gradient with a temperature increase of 0.075° C./s. The melting temperature and thermal profiles were determined using Protein Thermal Shift™ Software v1.3 (Applied Biosystems, Waltham, MA).

SHP2-E76K, sequence (Q06124 whole entry E76K): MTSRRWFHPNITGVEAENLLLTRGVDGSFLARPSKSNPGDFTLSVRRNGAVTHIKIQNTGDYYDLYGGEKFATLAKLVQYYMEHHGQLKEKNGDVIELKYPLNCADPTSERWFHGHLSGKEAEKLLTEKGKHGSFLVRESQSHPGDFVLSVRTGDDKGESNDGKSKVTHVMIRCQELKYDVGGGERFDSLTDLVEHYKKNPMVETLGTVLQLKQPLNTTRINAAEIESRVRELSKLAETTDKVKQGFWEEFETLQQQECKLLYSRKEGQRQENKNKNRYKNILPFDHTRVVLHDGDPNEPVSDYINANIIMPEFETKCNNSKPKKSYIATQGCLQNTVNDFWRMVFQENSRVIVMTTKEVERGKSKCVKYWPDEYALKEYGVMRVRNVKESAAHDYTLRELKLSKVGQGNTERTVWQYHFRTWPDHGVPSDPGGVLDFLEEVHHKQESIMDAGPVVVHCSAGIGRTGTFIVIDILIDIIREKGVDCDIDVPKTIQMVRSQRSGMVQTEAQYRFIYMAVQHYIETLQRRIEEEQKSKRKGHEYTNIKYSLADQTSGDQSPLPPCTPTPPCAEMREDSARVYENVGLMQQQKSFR

`Nc1ccc(NC(=O)c2cc(-c3ccc(/C=C4\Sc5ccccc5C4=O)o3)ccc2O)cc1` [#01, (Z)—N-(4-Aminophenyl)-2-hydroxy-5-(5-((3-oxobenzo[b]thiophen-2(3H)-ylidene)methyl)furan-2-yl)benzamide]: the “time dependence of inhibition” value on SHP2-E76K is reported as “not time-dependent”. The IC50 in test [1] turned out to be 2000 nM; at SHP2cat [2], 1200 nM; in test [3], 916 nM.

In the case of `O=C(Nc1ccccc1)c1cc(-c2ccc(/C=C3\Sc4ccccc4C3=O)o2)ccc1O` [#02, (Z)-2-hydroxy-5-(5-((3-oxobenzo[b]thiophen-2(3H)-ylidene)methyl)furan-2-yl)-N-phenylbenzamide], at SHP2cat [4], the “change of SHP2cat melting temperature (Tm)” value was “dose-dependently increased the melting temperature”. For the same molecule, the IC50 in test [1] was found to be 3000 nM; at SHP2cat [2], 440 nM; in test [3], 2000 nM.
